Reference: US20080064736A1, “Substituted 2-Pyrrolidone Derivatives as Fungicides and Insecticides” (Bayer Cropscience AG, priority 2004, published 2008)

Columns and labels:
Podosphaera leucotricha = experiment: Podosphaera test (apple)/protective; assay type: in vivo; conditions: protective, application rate 100 g/ha, evaluated 7 days after inoculation
Procedure: Podosphaera Test (Apple)/Protective
(§1) To produce a suitable preparation of active compound, 1 part by weight of active compound is mixed with the stated amounts of solvent and emulsifier, and the concentrate is diluted with water to the desired concentration.
To test for protective activity, young plants are sprayed with the preparation of active compound at the stated rate of application. After the spray coating has dried on, the plants are inoculated with an aqueous spore suspension of the causal agent of apple mildew (Podosphaera leucotricha). The plants are then placed in a greenhouse at approximately 23° C. and a relative atmospheric humidity of approximately 70%.
The test is evaluated 7 days after the inoculation. 0% means an efficacy which corresponds to that of the control, while an efficacy of 100% means that no disease is observed.

Spodoptera frugiperda = experiment: Spodoptera frugiperda-test (sensible strain); assay type: in vivo; conditions: cabbage leaves dipped, larvae, after six days
Procedure: Spodoptera frugiperda-Test (Sensible Strain)
Pieces of cabbage leaves (Brassica oleracea) are treated by being dipped into the preparation of the active compound of the desired concentration and are infested with larvae of the fall army worm (Spodoptera frugiperda) as long as the leaves are still moist.
After six days the mortality in % is determined. 100% means that all the caterpillars have been killed; 0% means that none of the caterpillars have been killed.

Venturia inaequalis = experiment: Venturia test (apples)/protective; assay type: in vivo; conditions: protective, application rate 100 g/ha, evaluated 10 days after inoculation
Procedure: Venturia Test (Apples)/Protective
as §1
To test for protective activity, young plants are sprayed with the preparation of active compound at the stated rate of application. After the spray coating has dried on, the plants are inoculated with an aqueous conidia suspension of the causal agent of apple scab (Venturia inaequalis) and then remain for 1 day in an incubation cabinet at approximately 20° C. and a relative atmospheric humidity of 100%.
The plants are then placed in a greenhouse at approximately 21° C. and a relative atmospheric humidity of approximately 90%.
The test is evaluated 10 days after the inoculation. 0% means an efficacy which corresponds to that of the control, while an efficacy of 100% means that no disease is observed.

Botrytis cinerea = experiment: Botrytis test (beans)/protective; assay type: in vivo; conditions: protective, application rate 500 g/ha, lesion size 2 days after inoculation
Procedure: Botrytis Test (Beans)/Protective
as §1
To test for protective activity, young plants are sprayed with the preparation of active compound. After the spray coating has dried on, 2 small pieces of agar covered with growth of Botrytis cinerea are placed on each leaf. The inoculated plants are placed in a darkened chamber at 20° C. and a relative atmospheric humidity of 100%.
2 days after the inoculation, the size of the lesions on the leaves is evaluated. 0% means an efficacy which corresponds to that of the control, while an efficacy of 100% means that no disease is observed.

sphaerotheca fuliginea = experiment: Sphaerotheca-test (cucumber); assay type: in vivo; conditions: protective, application rate 500 ppm, evaluated 7 days after inoculation

SMILES	efficacy (sphaerotheca fuliginea) [%]	chromatographic logP	other results
CCCCCC[C@H]1C(=O)N[C@@]2([C@@H](O)[C@@H]3C=CCCC3)C(=O)O[C@@]12C [Example 1, (1R,4R,5S)-1-[(S)-(1S)-2-cyclohexen-1-yl(hydroxy)methyl]-4-hexyl-5-methyl-6-oxa-2-azabicyclo[3.2.0]heptane-3,7-dione]	70	–	efficacy (Podosphaera leucotricha): 100%; efficacy (mortality) (Spodoptera frugiperda): 100%; efficacy (Venturia inaequalis): 100%; efficacy (Botrytis cinerea): more than 90%
CCCCCC[C@H]1C(=O)N[C@@]2([C@@H](O)C(C)C)C(=O)O[C@@]12C [Example 8, (1R,4R,5S)-4-hexyl-1-[(1S)-1-hydroxy-2-methylpropyl]-5-methyl-6-oxa-2-azabicyclo[3.2.0]heptane-3,7-dione]	70	–	–
CCCCCC[C@H]1C(=O)N[C@@]2([C@@H](O)C(C)C)C(=O)O[C@@]12C [(1R,4R,5S)-4-hexyl-1-[(1S)-1-hydroxy-2-methylpropyl]-5-methyl-6-oxa-2-azabicyclo[3.2.0]heptane-3,7-dione]	–	2.87	–
CCCCCC[C@@H]1C(=O)N[C@@]2([C@@H](O)C(C)C)C(=O)O[C@@]12C [(1R,4S,5S)-4-hexyl-1-[(1S)-1-hydroxy-2-methylpropyl]-5-methyl-6-oxa-2-azabicyclo[3.2.0]heptane-3,7-dione]	–	2.79	–
